Experimental data: US9885044B2, “Polynucleotides and methods for inhibiting cancer cells” (Chang Gung Memorial Hospital, Linkou, priority 2015, dated 2018)

Legend:
Type in all cases: cell-based
Puf-A = experiment: Effect of small molecules blocking downstream effectors of Kras pathway on Puf-A expression (Western blot); conditions: H460 and HCT116 cancer cells
From the text: FIG. 3C is a series of bar graphs showing Puf-A promoter activity in Kras^G12D or c-Myc transfected cells, determined by dual-luciferase reporter assay. FIG. 3D illustrates the binding of c-Myc protein to exon 1 of Puf-A locus in H1299 and HCT116 cells. […] FIG. 3F is an assembly of the Western blot images illustrating the effect of Raf inhibitor (Raf (i)), MEK1 inhibitor (PD98059) and MEK1/2 inhibitor (U0126) on the expression of Puf-A, phosphorylated ERK1/2, total ERK1/2 and β-actin in H460 (Kras ^Q61H) and HCT116 (Kras^G13D) cancer cells.
The effect of various small molecules (such as Raf(i), PD98059 and UO126), which block the downstream effectors of Kras pathway (such as Rafs, MEK1 and MEK2), was assessed in H460 and HCT116 cancer cells.

A549 lung cancer cells = experiment: Cell proliferation assay, xCELLigenece RTCA system, A549; conditions: 25 and 50 uM
Protocol: (§1) FIG. 9A is an assembly of Western blot images illustrating 25 and 50 uM of resveratrol reduced the expression of Puf-a in A549 lung cancer cells, HCT116 colon cancer cells, MB231 breast cancer cells and T98 glioblatoma cells. FIG. 9B is an assembly of graphs illustrating 25 and 50 uM of resveratrol was effective in reducing the proliferation of A549 lung cancer cells, HCT116 colon cancer cells, MB231 breast cancer cells and T98 glioblatoma cells.
(§2) An in vitro evaluation of the effect of Resveratrol on the expression level of Puf-a protein and cell proliferation in various cancer cells was examined. The following cancer cells were treated with 0, 25 or 50 uM of Resveratrol (commercially available from Sigma, USA): A549 lung cancer cells (p53 proficient), HCT116 colon cancer cells (p53 proficient), MB231 breast cancer cells (p53 deficient) and T98 glioblatoma cells (p53 deficient). The expression of Puf-A protein in these cancer cells was analyzed by western blot and the cell proliferation was measured with a cell proliferation assay performed with xCELLigenece RTCA system (ACEA Biosciences Inc, USA). FIG. 9A is an assembly of Western blot images illustrating 25 and 50 uM of resveratrol reduced the expression of Puf-A in A549 lung cancer cells, HCT116 colon cancer cells, MB231 breast cancer cells and T98 glioblatoma cells. […]

[1] = system: MB231 breast cancer cells; experiment: Cell proliferation assay, xCELLigenece RTCA system, MB231; conditions: 25 and 50 uM
Protocol: as §1, §2

[2] = system: HCT116 colon cancer cells; experiment: Cell proliferation assay, xCELLigenece RTCA system, HCT116; conditions: 25 and 50 uM
Protocol: as §1, §2

T98 glioblatoma cells = experiment: Cell proliferation assay, xCELLigenece RTCA system, T98; conditions: 25 and 50 uM
Protocol: as §1, §2

Puf-A protein = experiment: Effect of resveratrol on Puf-A protein expression (Western blot); conditions: 25 and 50 uM
Protocol: as §1
An in vitro evaluation of the effect of Resveratrol on the expression level of Puf-a protein and cell proliferation in various cancer cells was examined. The following cancer cells were treated with 0, 25 or 50 uM of Resveratrol (commercially available from Sigma, USA): A549 lung cancer cells (p53 proficient), HCT116 colon cancer cells (p53 proficient), MB231 breast cancer cells (p53 deficient) and T98 glioblatoma cells (p53 deficient). The expression of Puf-A protein in these cancer cells was analyzed by western blot and the cell proliferation was measured with a cell proliferation assay performed with xCELLigenece RTCA system (ACEA Biosciences Inc, USA). FIG. 9A is an assembly of Western blot images illustrating 25 and 50 uM of resveratrol reduced the expression of Puf-A in A549 lung cancer cells, HCT116 colon cancer cells, MB231 breast cancer cells and T98 glioblatoma cells. FIG. 9B is an assembly of graphs illustrating 25 and 50 uM of resveratrol reduced the proliferation of A549 lung cancer cells, HCT116 colon cancer cells, MB231 breast cancer cells and T98 glioblatoma cells compare to the control group (no resveratrol).

COc1cccc(-c2cc(=O)c3ccccc3o2)c1N [PD98059]
reduced: expression levels of Puf-A (Puf-A)

Oc1ccc(C=Cc2cc(O)cc(O)c2)cc1 [resveratrol]
reduced: proliferation compared to control group (no resveratrol) (A549 lung cancer cells) | proliferation compared to control group (no resveratrol) [1] | proliferation compared to control group (no resveratrol) [2] | proliferation compared to control group (no resveratrol) (T98 glioblatoma cells) | expression of Puf-A (Puf-A protein; A549 lung cancer cells (p53 proficient)) | expression of Puf-A (Puf-A protein; HCT116 colon cancer cells (p53 proficient)) | expression of Puf-A (Puf-A protein; MB231 breast cancer cells (p53 deficient)) | expression of Puf-A (Puf-A protein; T98 glioblatoma cells (p53 deficient))
